# In PMC4918903 (Journal of natural products, 2008):
# “Also recorded” adds a separate entry of the source.
# Tests used:
# Candida albicans = assay: In vitro antifungal activity; assay type: cell-based
# [1] = test system: Mycobacterium intracellulare; assay: In vitro antibacterial activity; assay type: cell-based
# P. bergei-infected mice = settings: single intraperitoneal and oral administration; cited from earlier work
# P. falciparum (D6 clone) = assay: In vitro antimalarial activity, chloroquine-sensitive D6 clone; assay type: cell-based; settings: Plasmodium falciparum, D6, read-out: P. falciparum (D6 clone) IC50
# [2] = test system: P. berghei (sensitive strain); assay: In vivo antimalarial activity in rodent malaria model; settings: oral; for cure: mice without parasitemia up to day 28 post-infection; for toxicity in vivo (in words): 30 mg/kg/day x 3 doses
# [3] = test system: Leishmania donovani promastigotes; assay: Antileishmanial activity, Almar Blue assay; assay type: cell-based; settings: for IC50: read-out: L. donovani IC50
# Cryptococcus neoformans = assay: In vitro antifungal activity; assay type: cell-based; settings: for IC50: Cryptococcus neoformans, read-out: C. neoformans IC50
# P. falciparum (W2 clone) = assay: In vitro antimalarial activity, chloroquine-resistant W2 clone; assay type: cell-based; settings: Plasmodium falciparum, W2, read-out: P. falciparum (W2 clone) IC50
# [4] = test system: Vero cell line (monkey kidney fibroblast cells); assay: Cytotoxicity to mammalian Vero cells; assay type: cell-based; settings: highest tested concentration 4700 ng/mL
# Stability in solvents = assay type: physicochemical
# [5] = test system: methicillin-resistant S. aureus (MRSA); assay: In vitro antibacterial activity; assay type: cell-based
# HSV-II = settings: cited from earlier work
# KB carcinoma cell line = settings: replacement of hydroxyl with methoxy at 8-position; cited from earlier work
# LoVo = settings: versus 8-hydroxy parent; cited from earlier work
smiles,measurement,setting,value
"O[C@]12C=C(c3nccc4c3[nH]c3ccccc34)[C@@H]3CCN(CCCC/C=C\CC1)C[C@@]31C[C@@H]3/C=C\CCCCN3[C@H]12 [Compound 1, manzamine A]",IC50,"Candida albicans; Candida albicans, read-out: C. albicans IC50",2 µg/mL
same,IC50,"[1]; Mycobacterium intracellulare, read-out: M. intracellulare IC50",0.35 µg/mL
same,prolonged survival of infected mice,P. bergei-infected mice,more than 10 days
same,IC50,P. falciparum (D6 clone),0.0042 µg/mL
same,cure,[2]; 10 mg/kg x 3 days,1/4
same,toxicity in vivo (in words),[2],shows toxicity
same,IC50,[3],0.9 µg/mL
same,IC50,Cryptococcus neoformans,3 µg/mL
"Oc1cccc2c1[nH]c1c(C3=C[C@@]4(O)CC/C=C\CCCCN5CC[C@@H]3[C@]3(C[C@@H]6/C=C\CCCCN6[C@H]34)C5)nccc12 [Compound 2, 8-hydroxymanzamine A]",MIC,"Candida albicans; Candida albicans, read-out: C. albicans MIC",20 µg/mL
same,prolonged survival of infected mice,P. bergei-infected mice,more than 10 days
same,IC50,P. falciparum (D6 clone),0.006 µg/mL
same,cure,[2]; 10 mg/kg x 3 days,0/4
same,cure,[2]; 30 mg/kg x 3 days,0/4
same,IC50,[3],6.2 µg/mL
same,IC50,Cryptococcus neoformans,3 µg/mL
same,IC50,P. falciparum (W2 clone),0.008 µg/mL
"Oc1cccc2c1[nH]c1c(C3=C[C@@]4(O)CC/C=C\CCCCN5CC[C@@H]3[C@]3(CC6/C=C\CCCCN6[C@H]34)C5)nccc12 (stereo partly drawn) [Compound 2, 8-hydroxymanzamine A]",toxicity in vivo (in words),[2],not toxic
"CC(=O)Oc1cccc2c1[nH]c1c(C3=C[C@@]4(O)CC/C=C\CCCCN5CC[C@@H]3[C@]3(C[C@@H]6/C=C\CCCCN6[C@H]34)C5)nccc12 [Compound 3, 8-acetoxymanzamine A]",toxicity to Vero cell line (in words),[4],exhibited toxicity
same,hydrolysis in DMSO and IPA (in words),Stability in solvents; DMSO and IPA,negligible
same,formation of hydroxyl moiety 2 in MeCN and DMSO (in words),Stability in solvents; MeCN and DMSO,no detectable trace
same,hydrolysis to 2 in MeOH,"Stability in solvents; MeOH, 15 h, LC-MS",98%
same,cure,[2]; 10 mg/kg x 3 days,0/4
same,cure,[2]; 30 mg/kg x 3 days,0/3
same,toxicity in vivo (in words),[2],higher toxicity; also recorded: toxic
"CC(=O)Oc1cccc2c1[nH]c1c(C3=C[C@@]4(OC(C)=O)CC/C=C\CCCCN5CC[C@@H]3[C@]3(C[C@@H]6/C=C\CCCCN6[C@H]34)C5)nccc12 [Compound 4, 8,12-diacetoxymanzamine A]",activity against MRSA (in words),[5],moderate activity
same,activity against C. albicans (in words),Candida albicans,inactive
same,activity against M. intracellulare (in words),[1],moderate activity
same,toxicity to Vero cell line (in words),[4],did not show cytotoxicity
same,stability in CDCl3 and CD2Cl2 (in words),"Stability in solvents; CDCl3 and CD2Cl2, 24 h, 1H NMR",decomposition
same,stability in benzene (in words),"Stability in solvents; benzene, a few days of 1H NMR acquisition",no changes were observed
same,stability in several tested solvents (in words),Stability in solvents; several tested solvents with the exception of benzene,unstable and easily degraded
same,activity against C. neoformans (in words),Cryptococcus neoformans,inactive
"COc1cccc2c1[nH]c1c(C3=C[C@@]4(O)CC/C=C\CCCCN5CC[C@@H]3[C@]3(C[C@@H]6/C=C\CCCCN6[C@H]34)C5)nccc12 [Compound 5, 8-methoxymanzamine A]",activity against HSV-II (in words),HSV-II,no activity
same,toxicity to Vero cell line (in words),[4],exhibited toxicity
same,stability in different solvents (in words),"Stability in solvents; different solvents, two months, LC-MS",no expected hydrolysis to compound 2 was observed
same,toxicity in KB carcinoma cell line versus 8-hydroxy parent (in words),KB carcinoma cell line,reduced the toxicity
same,cytotoxicity against LoVo (in words),LoVo,cytotoxity increased
"CCN(CC)CCCC(C)Nc1ccnc2cc(Cl)ccc12 (stereo not drawn) [chloroquine, reference compound]",IC50,P. falciparum (D6 clone),0.014 µg/mL
same,% suppression in parasitemia (% activity) day 7,"[2]; 50 mg/kg x 3 days, vehicle 0.1 N HCl, day 7 post-infection",100%
same,% suppression in parasitemia (% activity) day 10,"[2]; 50 mg/kg x 3 days, vehicle 0.1 N HCl, day 10 post-infection",100%
same,% suppression in parasitemia (% activity) day 14,"[2]; 50 mg/kg x 3 days, vehicle 0.1 N HCl, day 14 post-infection",100%
same,cure,[2]; 50 mg/kg x 3 days,3/4
same,IC50,P. falciparum (W2 clone),0.155 µg/mL
"N=C(N)c1ccc(OCCCCCOc2ccc(C(=N)N)cc2)cc1 [pentamidine, reference compound]",IC50,[3],2.6 µg/mL
same,IC90,[3]; read-out: L. donovani IC90,6.9 µg/mL
